Measured values reported in patent US11708357B2, “Crystal form of pyrrolidinyl urea derivative and application thereof” (ZHANGZHOU PIEN TZE HUANG PHARMACEUTICAL CO., LTD., priority 2020, dated 2023).

Columns and labels:
[1] = In vivo pharmacokinetic study in rats after single administration; details: male, Sprague Dawley, rat, plasma, 300 mg/kg, 300 mpk oral administration
Experimental: Male SD rats were used as test animals, and the concentration of the compound in blood was determined after single administration to evaluate the pharmacokinetic behavior.
Sprague Dawley rats (male, 200-300 g, 7-9 weeks, Shanghai Charles River Laboratory Animal Co., Ltd.)
The pharmacokinetic characteristics of the test compound in rodents after intravenous injection and oral administration were tested by standard protocols, in the experiment, the test compound was prepared into a clear solution or homogeneous suspension, and administered to the rats by single intravenous injection and oral administration. In the intravenous injection group, the menstruum was a certain proportion of ethanol and physiological saline solution or a certain proportion of dimethyl sulfoxide in HP-β cyclodextrin solution (the pH was adjusted to 3-4), the mixture was vortexed and stirred to prepare 1 mg/mL clear solution, then filtered with microporous membrane for later use; in the oral administration group, the menstruum was a certain proportion of sodium carboxymethyl cellulose solution or a certain proportion of dimethyl sulfoxide in HP-β cyclodextrin solution (the pH was adjusted to about 4), after the test compound was mixed with the solvent, the mixture was vortexed and stirred to prepare 30 mg/mL homogeneous suspension for later use. After 2 mg/kg intravenous administration or 300 mg/kg oral administration to rats, a certain amount of whole blood samples were collected, centrifuged at 3000 g for 15 minutes, the supernatant was separated to obtain the plasma samples; then an acetonitrile solution containing internal standard with a volume 3 times that of the plasma sample was added to precipitate proteins, and then centrifuged; the supernatant was separated, and water with a volume twice that of the supernatant was added to the supernatant, which was then centrifuged again; the supernatant was collected for analysis; LC-MS/MS analysis method was used to quantitatively analyze the blood drug concentration, and Phoenix WinNonlin software (Pharsight, USA) was used to calculate the pharmacokinetic parameters, such as peak concentration, time to peak concentration, clearance rate, half-life, area under the concentration-time curve, bioavailability, etc.
(§1) Among them, C0 is the initial concentration, T1/2 is the elimination half-life, Vdss is the steady-state apparent volume of distribution, Cl is the total clearance rate, AUC0-inf is the area under the plasma drug concentration-time curve from time 0 to infinity, Cmax is the peak concentration, Tmax is the time to peak concentration.

[2] = In vivo pharmacokinetic study in beagle dogs after single administration; details: male, dog, plasma, 10 mg/kg, 10 mpk oral administration
Experimental: Male beagle dogs were used as test animals, the concentration of the compound in blood after single administration was determined to evaluate the pharmacokinetic behavior.
Beagle dogs (Male, 6-12 kg, more than 6 months, Beijing Marshall Biotechnology Co., Ltd.).
The objective of the test was to study the pharmacokinetic characteristics of the test compound in non-rodent after intravenous injection and oral administration. In the experiment, the test compound was prepared into a clear solution or homogeneous suspension and administered to the beagle dogs by single intravenous injection or oral administration. In the intravenous injection group, the menstruum was a certain proportion of dimethyl sulfoxide in HP-β-cyclodextrin solution or a certain proportion of ethanol, polyethylene glycol 400 and physiological saline solution, the mixture was vortexed and subjected to ultrasonic treatment to prepare 2 mg/mL clear solution, then filtered with microporous membrane for later use; in the oral administration group, the menstruum was a certain proportion of dimethyl sulfoxide in HP-β-cyclodextrin solution or a certain proportion of sodium carboxymethyl cellulose solution, the test compound was mixed with the menstruum, vortexed and subjected to ultrasonic treatment to prepare 2 mg/mL homogeneous suspension for later use. After 2 mg/kg intravenous administration or 10 mg/kg oral administration to the Beagle dogs, a certain amount of whole blood samples were collected, centrifuged at 3000 g for 10 minutes, and the supernatant was separated to obtain plasma samples; then an acetonitrile solution containing internal standard with a volume 10 times that of the plasma sample was added to precipitate proteins, and then centrifuged; the supernatant was separated for analysis; LC-MS/MS analysis method was used to quantitatively analyze the blood drug concentration, and Phoenix WinNonlin software (Pharsight, USA) was used to calculate the pharmacokinetic parameters, such as peak concentration, time to peak concentration, clearance rate, half-life, area under the concentration-time curve, bioavailability, etc.
as §1

[3] = Solid stability test (XRPD and HPLC purity); format: physicochemical
Experimental: Samples placed under high temperature and high humidity conditions were sealed with aluminum foil paper and small holes were punched in the aluminum foil paper to ensure that the sample could fully contact with ambient air; […] Samples placed under high temperature (60° C.) and high humidity (92.5% humidity, room temperature) conditions were sampled and tested (XRPD and purity) on the 5th and 10th day. […] Samples placed under the condition of illumination were sampled and tested when the total illuminance reached 1.2×10^6 Lux·hr.

[4] = Hygroscopicity by dynamic vapor sorption (DVS); format: physicochemical; details: 25° C. and 80% RH
Experimental: Instrument model: Intrinsic dynamic vapor sorption instrument
Detection conditions: A sample (10-30 mg) was placed in a DVS sample tray for detection.
Balance: dm/dt=0.002%/min (shortest: 10 min, longest: 180 min)

[5] = 40° C., relative humidity 75%, opened, 30 days
[6] = 40° C., relative humidity 75%, opened, 60 days
[7] = 60° C., relative humidity 75%, opened, 30 days
[8] = 60° C., relative humidity 75%, opened, 60 days
[9] = High humidity (room temperature/relative humidity 92.5%, opened), 5 days
[10] = High humidity (room temperature/relative humidity 92.5%, opened), 10 days
[11] = High temperature (60° C., opened), 5 days
[12] = High temperature (60° C., opened), 10 days
[13] = Illumination (total illuminance 1.2 × 10^6 Lux · hr/near ultraviolet 200 w · hr/m^2, opened)

- AUC(0-inf) [1]: 276 µM·h
- Cmax [1]: 48.5 µM
- Tmax [1]: 45 min
- bioavailability [1]: 70.5%
- half-life [1]: 195 min
- AUC(0-inf) [2]: 26.4 µM·h
- Cmax [2]: 10.4 µM
- Tmax [2]: 45 min
- bioavailability [2]: 113%
- half-life [2]: 57 min
- Crystal form (XRPD) ([3]; 0 day (initial)): Crystal form E
- Purity ([3]; 0 day (initial)): 98.75%
- Crystal form (XRPD) [3, 5]: Crystal form E
- Purity [3, 5]: 98.14%
- Crystal form (XRPD) [3, 6]: Crystal form E
- Purity [3, 6]: 98.06%
- Crystal form (XRPD) [3, 7]: Crystal form E
- Purity [3, 7]: 98.17%
- Crystal form (XRPD) [3, 8]: Crystal form E
- Purity [3, 8]: 98.22%
- Crystal form (XRPD) [3, 9]: Crystal form E
- Purity [3, 9]: 98.62%
- Crystal form (XRPD) [3, 10]: Crystal form E
- Purity [3, 10]: 98.72%
- Crystal form (XRPD) [3, 11]: Crystal form E
- Purity [3, 11]: 98.74%
- Crystal form (XRPD) [3, 12]: Crystal form E
- Purity [3, 12]: 98.74%
- Crystal form (XRPD) [3, 13]: Crystal form E
- Purity [3, 13]: 98.83%
- Classification of hygroscopicity [4]: hygroscopic (15% > ΔW % ≥ 2%)
- hygroscopic weight gain ΔW [4]: 6.228%
Compound: COCCN1C[C@@H](n2ccc(F)c2)[C@H](NC(=O)Nc2c(C)c(-c3cnc(C4(F)COC4)nc3)nn2-c2ccccc2)C1
